From patent publication US20240190849A1, “AMINOPYRIMIDINE COMPOUNDS AND METHODS OF THEIR USE” (TYRA BIOSCIENCES, INC., priority 2021, published 2024)

Tests used:
Conditions in all cases: FGFR binding data
FGFR3 (V555M) = molecular target: T1, FGFR3 (V555M) (Homo sapiens, UniProt P22607, V555M); assay: Kinase binding assay (kinase-tagged T7 phage, affinity beads, qPCR readout), FGFR3 (V555M)
T1 construct: made in house; host or cells: E. coli derived from BL21, infected with T7 phage
Description: (§1) Kinase-tagged T7 phage strains were prepared in an E. coli host derived from the BL21 strain. E. coli were grown to log-phase and infected with T7 phage and incubated with shaking at 32° C. until lysis. The lysates were centrifuged and filtered to remove cell debris. Streptavidin-coated magnetic beads were treated with biotinylated small molecule ligands for 30 minutes at room temperature to generate affinity resins for kinase assays. The liganded beads were blocked with excess biotin and washed with blocking buffer SeaBlock (Pierce), 1% BSA, 0.05% Tween 20, 1 mM DTT to remove unbound ligand and to reduce non-specific binding. Binding reactions were assembled by combining kinases, liganded affinity beads, and test compounds in 1× binding buffer (20% SeaBlock, 0.17×PBS, 0.05% Tween 20, 6 mM DTT).
(§2) Test compounds were prepared as 111× stocks in 100% DMSO. Kds were determined using an 11-point 3-fold compound dilution series with three DMSO control points. All compounds for Kd measurements are distributed by acoustic transfer (non-contact dispensing) in 100% DMSO. The compounds were then diluted directly into the assays such that the final concentration of DMSO was 0.9%. All reactions performed in polypropylene 384-well plate. Each was a final volume of 0.02 ml. The assay plates were incubated at room temperature with shaking for 1 hour and the affinity beads were washed with wash buffer (1×PBS, 0.05% Tween 20). The beads were then re-suspended in elution buffer (1×PBS, 0.05% Tween 20, 0.5 μM non-biotinylated affinity ligand) and incubated at room temperature with shaking for 30 minutes. The kinase concentration in the eluates was measured by qPCR.
(§3) Binding constants were calculated with a standard dose-response curve using the Hill equation: […]
(§4) The Hill Slope was set to −1. Curves were fitted using a non-linear least square fit with the Levenberg-Marquardt algorithm.

FGFR3 = molecular target: T2, FGFR3 (Homo sapiens, UniProt P22607); assay: Kinase binding assay (kinase-tagged T7 phage, affinity beads, qPCR readout), FGFR3
T2 construct: made in house; host or cells: E. coli derived from BL21, infected with T7 phage
T2 sequence (P22607 23-806): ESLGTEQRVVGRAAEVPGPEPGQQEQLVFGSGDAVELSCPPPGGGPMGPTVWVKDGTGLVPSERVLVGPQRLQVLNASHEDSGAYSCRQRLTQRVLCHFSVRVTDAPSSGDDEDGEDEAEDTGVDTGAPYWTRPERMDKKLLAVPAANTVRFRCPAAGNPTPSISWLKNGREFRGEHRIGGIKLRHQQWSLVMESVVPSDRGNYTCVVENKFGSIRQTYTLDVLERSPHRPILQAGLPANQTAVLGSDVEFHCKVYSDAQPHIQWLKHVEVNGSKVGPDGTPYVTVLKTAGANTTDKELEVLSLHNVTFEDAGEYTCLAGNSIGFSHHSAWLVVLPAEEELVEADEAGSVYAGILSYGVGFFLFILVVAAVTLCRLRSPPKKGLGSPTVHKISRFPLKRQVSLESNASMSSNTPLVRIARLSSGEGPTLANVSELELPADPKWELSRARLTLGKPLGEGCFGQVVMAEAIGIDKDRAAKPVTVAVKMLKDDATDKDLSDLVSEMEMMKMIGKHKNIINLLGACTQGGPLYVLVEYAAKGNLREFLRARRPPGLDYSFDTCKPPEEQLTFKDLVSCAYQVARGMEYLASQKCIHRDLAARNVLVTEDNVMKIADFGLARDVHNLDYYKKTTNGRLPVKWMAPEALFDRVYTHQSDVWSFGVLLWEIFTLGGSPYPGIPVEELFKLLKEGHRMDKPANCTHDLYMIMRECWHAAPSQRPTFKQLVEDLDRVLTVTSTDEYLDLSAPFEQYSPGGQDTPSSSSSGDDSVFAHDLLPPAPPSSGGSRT
Description: as §1, §2, §3, §4

FGFR2 = molecular target: T3, FGFR2 (Homo sapiens, UniProt P21802); assay: Kinase binding assay (kinase-tagged T7 phage, affinity beads, qPCR readout), FGFR2
T3 construct: made in house; host or cells: E. coli derived from BL21, infected with T7 phage
T3 sequence (P21802 22-821): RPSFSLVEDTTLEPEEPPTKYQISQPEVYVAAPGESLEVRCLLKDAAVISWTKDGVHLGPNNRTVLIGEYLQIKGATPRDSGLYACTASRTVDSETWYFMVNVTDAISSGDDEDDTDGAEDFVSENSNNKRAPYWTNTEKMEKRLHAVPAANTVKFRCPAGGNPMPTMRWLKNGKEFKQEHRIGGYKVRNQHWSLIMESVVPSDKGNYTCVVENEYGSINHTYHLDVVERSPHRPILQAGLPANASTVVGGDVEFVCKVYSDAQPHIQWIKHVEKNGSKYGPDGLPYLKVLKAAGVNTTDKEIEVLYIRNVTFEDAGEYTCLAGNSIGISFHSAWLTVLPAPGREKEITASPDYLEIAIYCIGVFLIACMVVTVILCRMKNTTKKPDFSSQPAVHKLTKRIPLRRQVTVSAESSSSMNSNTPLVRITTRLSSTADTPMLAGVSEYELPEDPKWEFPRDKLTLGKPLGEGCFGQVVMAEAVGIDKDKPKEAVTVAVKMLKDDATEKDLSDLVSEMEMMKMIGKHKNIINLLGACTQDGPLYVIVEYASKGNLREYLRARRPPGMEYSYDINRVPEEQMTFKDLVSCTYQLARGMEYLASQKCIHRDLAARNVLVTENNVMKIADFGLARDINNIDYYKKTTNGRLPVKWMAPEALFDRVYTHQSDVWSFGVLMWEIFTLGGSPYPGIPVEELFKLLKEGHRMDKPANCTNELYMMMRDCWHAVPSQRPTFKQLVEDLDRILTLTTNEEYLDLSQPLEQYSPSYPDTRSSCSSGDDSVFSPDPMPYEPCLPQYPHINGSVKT
Description: as §1, §2, §3, §4

FGFR1 = molecular target: T4, FGFR1 (Homo sapiens, UniProt P11362); assay: Kinase binding assay (kinase-tagged T7 phage, affinity beads, qPCR readout), FGFR1
T4 construct: made in house; host or cells: E. coli derived from BL21, infected with T7 phage
T4 sequence (P11362 22-822): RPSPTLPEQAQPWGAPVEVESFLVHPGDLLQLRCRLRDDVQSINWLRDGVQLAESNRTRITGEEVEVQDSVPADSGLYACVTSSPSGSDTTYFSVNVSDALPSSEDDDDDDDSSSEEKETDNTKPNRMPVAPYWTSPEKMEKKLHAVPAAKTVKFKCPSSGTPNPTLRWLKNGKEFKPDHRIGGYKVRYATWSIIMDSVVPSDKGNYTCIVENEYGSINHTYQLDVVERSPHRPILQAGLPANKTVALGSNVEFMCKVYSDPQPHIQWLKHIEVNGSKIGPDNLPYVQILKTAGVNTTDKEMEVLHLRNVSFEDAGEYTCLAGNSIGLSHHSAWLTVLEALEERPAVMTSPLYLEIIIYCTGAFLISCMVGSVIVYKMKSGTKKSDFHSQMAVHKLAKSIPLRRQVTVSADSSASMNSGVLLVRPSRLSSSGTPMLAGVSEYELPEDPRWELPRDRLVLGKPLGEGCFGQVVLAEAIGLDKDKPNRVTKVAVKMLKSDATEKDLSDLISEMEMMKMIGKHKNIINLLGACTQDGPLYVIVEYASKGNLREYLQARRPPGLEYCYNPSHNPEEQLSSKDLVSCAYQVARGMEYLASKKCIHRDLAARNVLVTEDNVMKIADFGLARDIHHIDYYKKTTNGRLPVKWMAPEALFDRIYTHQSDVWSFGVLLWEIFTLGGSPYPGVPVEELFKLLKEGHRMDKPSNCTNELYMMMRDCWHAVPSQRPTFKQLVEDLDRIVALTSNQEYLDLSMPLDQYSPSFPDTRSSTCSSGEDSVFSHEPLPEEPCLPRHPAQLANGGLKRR
Description: as §1, §2, §3, §4

T1 sequence (P22607 23-806 V555M): as the sequence (P22607 23-806) above, with V533M counted along it

| Kd (FGFR3 (V555M)) [nM] | Kd (FGFR3) [nM] | Kd (FGFR2) [nM] | Kd (FGFR1) [nM] | Compound |
| --- | --- | --- | --- | --- |
| 0.1 to 100 | 0.1 to 100 | 0.1 to 100 | 0.1 to 100 | C=CC(=O)Nc1ccc2c(-c3ccnc(Nc4cnn(CC)c4)n3)cn(C)c2c1 [Example 95, N-[3-[2-[(1-ethylpyrazol-4-yl)amino]pyrimidin-4-yl]-1-methyl-indol-6-yl]prop-2-enamide] |
| 0.1 to 100 | 0.1 to 100 | 0.1 to 100 | 0.1 to 100 | C=CC(=O)Nc1ccc2c(-c3nc(Nc4ccc(N5CCOCC5)cc4)ncc3C)cn(C)c2c1 [Example 52, N-[1-Methyl-3-[5-methyl-2-(4-morpholinoanilino)pyrimidin-4-yl]indol-6-yl]prop-2-enamide] |
| 0.1 to 100 | 0.1 to 100 | 0.1 to 100 | 0.1 to 100 | C=CC(=O)Nc1ccc2c(c1)c(C)cn2-c1nc(Nc2ccc(CN3CCN(C)CC3)cc2)ncc1Cl [Example 65, N-[1-[5-chloro-2-[4-[(4-methylpiperazin-1-yl)methyl]-anilino]pyrimidin-4-yl]-3-methyl-indol-5-yl]prop-2-enamide] |
| 250 to 1000 | 250 to 1000 | > 1000 | > 1000 | C=CC(=O)Nc1ccc2c(c1)c(C)cn2-c1nc(Nc2cn(C)nc2C)nnc1Cl [Example 225, N-[1-[6-chloro-3-[(1,3-dimethylpyrazol-4-yl)amino]-1,2,4-triazin-5-yl]-3-methyl-indol-5-yl]prop-2-enamide] |
| > 1000 | > 1000 | > 1000 | > 1000 | C=CC(=O)Nc1ccc2c(c1)c(C)cn2-c1nc(Nc2c(C)cccc2OCC)ncc1C#N [Example 33, N-[1-[5-cyano-2-(2-ethoxy-6-methyl-anilino)pyrimidin-4-yl]-3-methyl-indol-5-yl]prop-2-enamide] |
| > 1000 | > 1000 | > 1000 | > 1000 | CC#CC(=O)N(C)c1ccc2c(c1)c(C)cn2-c1nc(Nc2ccnn2C)ncc1C [Example 152, N-methyl-N-[3-methyl-1-[5-methyl-2-[(2-methylpyrazol-3-yl)amino]pyrimidin-4-yl]indol-5-yl]but-2-ynamide] |
| 0.1 to 100 | 0.1 to 100 | 0.1 to 100 | 0.1 to 100 | C=CC(=O)Nc1ccc2c(-c3nc(Nc4ccc(N5CCN(C)CC5)c(OC)c4)ncc3Cl)cn(C)c2c1 [Example 48, N-[3-[5-chloro-2-[3-methoxy-4-(4-methylpiperazin-1-yl)anilino]-pyrimidin-4-yl]-1-methyl-indol-6-yl]prop-2-enamide] |
| 0.1 to 100 | 0.1 to 100 | 0.1 to 100 | 0.1 to 100 | Cc1cn(-c2nc(Nc3cnn(C[C@H](C)O)c3)ncc2F)c2ncc(NC(=O)/C=C/CN(C)C)cc12 [Example 196, (E)-4-(dimethylamino)-N-[1-[5-fluoro-2-[[1-[(2S)-2-hydroxypropyl]pyrazol-4-yl]amino]pyrimidin-4-yl]-3-methyl-pyrrolo[2,3-b]pyridin-5-yl]but-2-enamide] |
| 0.1 to 100 | 0.1 to 100 | 0.1 to 100 | 0.1 to 100 | C=CC(=O)Nc1ccc2c(c1)c(C)cn2-c1nc(Nc2ccc(CN3CCOCC3)c(C)c2)ncc1Cl [Example 66, N-[1-[5-chloro-2-[3-methyl-4-(morpholinomethyl)anilino]pyrimidin-4-yl]-3-methyl-indol-5-yl]prop-2-enamide] |
| 0.1 to 100 | 0.1 to 100 | 0.1 to 100 | 0.1 to 100 | C=CC(=O)Nc1ccc2c(c1)c(C)cn2-c1nc(Nc2cc(C)sn2)ncc1F [Example 161, N-[1-[5-fluoro-2-[(5-methylisothiazol-3-yl)amino]pyrimidin-4-yl]-3-methyl-indol-5-yl]prop-2-enamide] |
| 0.1 to 100 | 0.1 to 100 | 0.1 to 100 | 0.1 to 100 | C=CC(=O)Nc1ccc2c(c1)c(C)c(C)n2-c1nc(Nc2cnn(C)c2)ncc1F [Example 226, N-[1-[5-fluoro-2-[(1-methylpyrazol-4-yl)amino]pyrimidin-4-yl]-2,3-dimethyl-indol-5-yl]prop-2-enamide] |
| 0.1 to 100 | 0.1 to 100 | 0.1 to 100 | 0.1 to 100 | C=CC(=O)Nc1ccc2c(c1)c(C)cn2-c1nc(Nc2cnnn2C)ncc1Cl [Example 72, N-[1-[5-chloro-2-[(3-methyltriazol-4-yl)amino]pyrimidin-4-yl]-3-methyl-indol-5-yl]prop-2-enamide] |
| 0.1 to 100 | 0.1 to 100 | 0.1 to 100 | 0.1 to 100 | C=CC(=O)Nc1ccc2c(c1)c(C)cn2-c1nc(Nc2cccc(N3CCN(C)CC3)c2)ncc1Cl [Example 73, N-[1-[5-chloro-2-[3-(4-methylpiperazin-1-yl)anilino]-pyrimidin-4-yl]-3-methyl-indol-5-yl]prop-2-enamide] |
| 0.1 to 100 | 0.1 to 100 | 0.1 to 100 | 0.1 to 100 | C=CC(=O)Nc1ccc2c(c1)c(C)cn2-c1ccnc(Nc2cnn(C)c2)n1 [Example 79, N-[3-methyl-1-[2-[(1-methylpyrazol-4-yl)amino]pyrimidin-4-yl]indol-5-yl]prop-2-enamide] |
| 0.1 to 100 | 0.1 to 100 | 0.1 to 100 | 0.1 to 100 | Cc1cn(-c2nc(Nc3cnn(C[C@@H](C)O)c3)ncc2F)c2ncc(NC(=O)/C=C/CN(C)C)cc12 [Example 191, (E)-4-(dimethylamino)-N-[1-[5-fluoro-2-[[1-[(2R)-2-hydroxypropyl]pyrazol-4-yl]amino]pyrimidin-4-yl]-3-methyl-pyrrolo[2,3-b]pyridin-5-yl]but-2-enamide] |
| > 1000 | > 1000 | > 1000 | > 1000 | CC#CC(=O)Nc1cnc2c(c1)c(C)cn2-c1nc(Nc2ccnn2C)ncc1F [Example 134, N-[1-[5-fluoro-2-[(2-methylpyrazol-3-yl)amino]pyrimidin-4-yl]-3-methyl-pyrrolo[2,3-b]pyridin-5-yl]but-2-ynamide] |
| 0.1 to 100 | 0.1 to 100 | 0.1 to 100 | 100 to 250 | C=CC(=O)Nc1ccc2c(c1)c(C)cn2-c1nc(Nc2cc(C)nn2C)ncc1Cl [Example 56, N-[1-[5-chloro-2-[(2,5-dimethylpyrazol-3-yl)amino]-pyrimidin-4-yl]-3-methyl-indol-5-yl]prop-2-enamide] |
| 0.1 to 100 | 0.1 to 100 | 0.1 to 100 | 0.1 to 100 | C=CC(=O)Nc1ccc2c(ccn2-c2nc(Nc3ccc(N(C)CCN(C)C)cc3)ncc2Cl)c1 [Example 3, N-[1-[5-chloro-2-[4-[2-(dimethylamino)ethyl-methyl-amino]anilino]pyrimidin-4-yl]indol-5-yl]prop-2-enamide] |
| 0.1 to 100 | 0.1 to 100 | 0.1 to 100 | 0.1 to 100 | C=CC(=O)Nc1ccc2c(c1)c(C)cn2-c1nc(Nc2ccn(CC)n2)ncc1C [Example 93, N-[1-[2-[(1-ethylpyrazol-3-yl)amino]-5-methyl-pyrimidin-4-yl]-3-methylindol-5-yl]prop-2-enamide] |
| 0.1 to 100 | 0.1 to 100 | 0.1 to 100 | 100 to 250 | C=CC(=O)Nc1ccc2c(-c3ccnc(Nc4cn(CC(F)F)nc4C)n3)cn(C)c2c1 [Example 170, N-[3-[2-[[1-(2,2-difluoroethyl)-3-methyl-pyrazol-4-yl]amino]pyrimidin-4-yl]-1-methyl-indol-6-yl]prop-2-enamide] |
| 0.1 to 100 | 0.1 to 100 | 0.1 to 100 | 0.1 to 100 | C=CC(=O)Nc1cnc2c(c1)c(C)cn2-c1nc(Nc2ccn(CC)n2)ncc1C [Example 114, N-[1-[2-[(1-ethylpyrazol-3-yl)amino]-5-methyl-pyrimidin-4-yl]-3-methyl-pyrrolo[2,3-b]pyridin-5-yl]prop-2-enamide] |
| 100 to 250 | 100 to 250 | 100 to 250 | 250 to 1000 | Cc1nn(C)cc1Nc1ncc(F)c(-n2cc(C)c3cc(NC(=O)/C=C/CN(C)C)cnc32)n1 [Example 179, (E)-4-(dimethylamino)-N-[1-[2-[(1,3-dimethylpyrazol-4-yl)amino]-5-fluoro-pyrimidin-4-yl]-3-methyl-pyrrolo[2,3-b]pyridin-5-yl]but-2-enamide] |
| 0.1 to 100 | 100 to 250 | 0.1 to 100 | 250 to 1000 | CC#CC(=O)Nc1ccc2c(-c3nc(Nc4cnn(CCO)c4)ncc3Cl)cn(C)c2c1 [Example 135, N-[3-[5-chloro-2-[[1-(2-hydroxyethyl)pyrazol-4-yl]amino]pyrimidin-4-yl]-1-methyl-indol-6-yl]but-2-ynamide] |
| 0.1 to 100 | 0.1 to 100 | 0.1 to 100 | 0.1 to 100 | C#CC(=O)Nc1ccc2c(-c3ccnc(Nc4cnn(CCO)c4)n3)cn(C)c2c1 [Example 143, N-[3-[2-[[1-(2-hydroxyethyl)pyrazol-4-yl]amino]pyrimidin-4-yl]-1-methyl-indol-6-yl]prop-2-ynamide] |
